From US20240228512A1, “ACYCLIC OXAZEPINE COMPOUNDS COMPRISING A 6-AZA MOIETY AND USES THEREOF” (Genentech, Inc., priority 2022, published 2024) come the findings set out here.

Like-named read-outs stand apart in the source and are kept apart here.

The target of test [1] is recombinant human KRAS wild type (SOS1-mediated nucleotide exchange) (Homo sapiens (Human), UniProt P01116). The experiment in a line: KRAS biochemical assay, BODIPY-GDP exchange TR-FRET (WT-GDP HTRF).
Test [2] has as its target recombinant human mutant KRas G12V (SOS1-mediated nucleotide exchange) (Homo sapiens (Human), UniProt P01116, G12V). The experiment in a line: KRAS biochemical assay, BODIPY-GDP exchange TR-FRET (G12V-GDP HTRF). Background: Time-resolved FRET reads energy transfer from a long-lived donor to a nearby acceptor.
In test [3] the test system is SW620 cells. The experiment in a line: SW620 3D proliferation assay (CellTiter-Glo). In kind it is cell-based. The following applies: SW620, 3D culture, 7 days, read-out: SW620 CTG IC50. Summed up:
(§1)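 IC50 values were fitted with a 4-parameter logistic to luminescent ATP signal (CellTiter-Glo 3D) after 7-day compound exposure. Seeding was 3000 (96-well) or 1000 (384-well) cells/well in low-attachment plates with RPMI-1640, 10% FBS, 2 mM L-glutamine.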
A general note: In ATP-based viability assays light output follows the ATP content of the culture.

Test [4] has as its system H1975 cells. Put plainly: H1975 CTG proliferation assay. It is filed as cell-based.
Test [5] deals with HPAC cells. Put plainly: HPAC 3D proliferation assay (CellTiter-Glo). In kind it is cell-based. Particulars: 3D culture, 7 days, read-out: HPAC CTG IC50. Summed up:
as §1

In test [6] the test system is SW480 cells. The experiment in a line: SW480 CTG proliferation assay. It is filed as cell-based. Particulars: Homo sapiens.
The test system of test [7] is SW620 PERK. The experiment in a line: SW620 PERK assay. In kind it is cell-based.
The mark [8] stands for this setting: Homo sapiens, NCI-H1975, H1975, CTG.
The mark [9] stands for this setting: Homo sapiens, SW-620, SW620, PERK.

Chain of recombinant human KRAS wild type (SOS1-mediated nucleotide exchange) (P01116-2 other isoform, or with tags, fused parts or gaps): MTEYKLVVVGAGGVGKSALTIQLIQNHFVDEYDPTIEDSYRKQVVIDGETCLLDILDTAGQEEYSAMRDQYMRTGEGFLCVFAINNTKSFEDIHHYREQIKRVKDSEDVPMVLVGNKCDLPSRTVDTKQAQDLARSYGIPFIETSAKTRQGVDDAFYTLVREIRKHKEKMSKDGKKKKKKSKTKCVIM
Chain of recombinant human mutant KRas G12V (SOS1-mediated nucleotide exchange) (P01116-2 other isoform, or with tags, fused parts or gaps G12V): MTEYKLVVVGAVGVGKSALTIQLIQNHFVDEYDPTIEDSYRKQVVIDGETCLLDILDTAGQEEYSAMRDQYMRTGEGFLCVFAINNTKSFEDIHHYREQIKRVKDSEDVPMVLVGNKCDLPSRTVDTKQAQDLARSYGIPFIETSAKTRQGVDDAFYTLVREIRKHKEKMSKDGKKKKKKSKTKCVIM

As a reminder, the IC50 is the concentration that gives 50% inhibition. Consider `Cc1c(F)c(N)c(F)c(-c2nc3c4c(nc(OC[C@@]56CCCN5C[C@H](F)C6)nc4c2Cl)N([C@H](C)c2cccnc2N)CCO3)c1C(F)(F)F` (atropisomer, axis not shown; (aS)) [Example 629a, 3-((R)-1-((R)-5-(3-amino-2,4-difluoro-5-methyl-6-(trifluoromethyl)phenyl)-4-chloro-2-(((2R,7aS)-2-fluorotetrahydro-1H-pyrrolizin-7a(5H)-yl)methoxy)-8,9-dihydro-10H-7-oxa-1,3,6,10-tetraazacyclohepta[de]naphthalen-10-yl)ethyl)pyridin-2-amine], for which the IC50 was determined as 0.178 nM in test [1]; 0.069 nM in test [2]; 1.71 nM in test [3] (Homo sapiens, SW-620, 168 h); 176 nM in test [4] (setting [8]); 15.3 nM in test [5] (Homo sapiens, 168 h); 20 nM in test [6]. The same compound displayed a half-inhibitory concentration (IC50) in test [7] (setting [9]) of 1.33 nM.
Turning to `Cc1cc(N)c(Cl)c(-c2nc3c4c(nc(OC[C@@]56CCCN5C[C@H](F)C6)nc4c2F)N([C@H](C)c2cccnc2N)CCO3)c1C(F)(F)F` (single isomer, unassigned) [Example 21b], the IC50 in test [1] is 0.07 nM; in test [2], 0.05 nM; in test [3], 1 nM; in test [4] (H1975, CTG), 2.59 nM; in test [5] it was 4.43 nM; in test [6], 2.4 nM. This compound also displayed an IC50 in test [7] (SW620, PERK) of 0.555 nM.
Take `C#Cc1c(F)ccc2cc(O)cc(-c3nc4c5c(nc(OC[C@@]67CCCN6C[C@H](F)C7)nc5c3F)N([C@H](C)c3cccnc3N)CCO4)c12` [Example 2, 4-(10-((R)-1-(2-aminopyridin-3-yl)ethyl)-4-fluoro-2-(((2R,7aS)-2-fluorotetrahydro-1H-pyrrolizin-7a(5H)-yl)methoxy)-9,10-dihydro-8H-7-oxa-1,3,6,10-tetraazacyclohepta[de]naphthalen-5-yl)-5-ethynyl-6-fluoronaphthalen-2-ol]: the IC50 in test [1] was 0.0671 nM; in test [2], 0.08 nM; in test [3] (Homo sapiens, SW-620, 168 h) it was 2.41 nM; in test [4] (setting [8]), 2.59 nM; in test [5] (Homo sapiens, 168 h), 20.8 nM; in test [6], 2.9 nM. The compound further registered an IC50 in test [7] (setting [9]) of 1.29 nM.
With `Cc1c(F)c(N)cc(-c2nc3c4c(nc(OC[C@@]56CCCN5C[C@H](F)C6)nc4c2F)N([C@H](C)c2cccnc2N)CCO3)c1C(F)(F)F` [Example 5, 3-((R)-1-(5-(5-amino-4-fluoro-3-methyl-2-(trifluoromethyl)phenyl)-4-fluoro-2-(((2R,7aS)-2-fluorotetrahydro-1H-pyrrolizin-7a(5H)-yl)methoxy)-8,9-dihydro-10H-7-oxa-1,3,6,10-tetraazacyclohepta[de]naphthalen-10-yl)ethyl)pyridin-2-amine], the IC50 came to 0.0529 nM in test [1]; 0.045 nM in test [2]; 1.14 nM in test [3] (Homo sapiens, SW-620, 168 h); 12.8 nM in test [4] (setting [8]); 5.06 nM in test [5] (Homo sapiens, 168 h); 5.8 nM in test [6]. Also, in test [7] (setting [9]), half-maximal inhibition (IC50) was put at 0.72 nM.
In the case of `Cc1cc(N)nc(-c2nc3c4c(nc(OC[C@@]56CCCN5C[C@H](F)C6)nc4c2F)N([C@H](C)c2cccnc2N)CCO3)c1C(F)(F)F` [Example 6, 6-(10-((R)-1-(2-aminopyridin-3-yl)ethyl)-4-fluoro-2-(((2R,7aS)-2-fluorotetrahydro-1H-pyrrolizin-7a(5H)-yl)methoxy)-9,10-dihydro-8H-7-oxa-1,3,6,10-tetraazacyclohepta[de]naphthalen-5-yl)-4-methyl-5-(trifluoromethyl)pyridin-2-amine], the IC50 is 0.215 nM in test [1]; 0.21 nM in test [2]; 13.4 nM in test [3] (Homo sapiens, SW-620, 168 h); 7.23 nM in test [4] (setting [8]); 43.7 nM in test [5] (Homo sapiens, 168 h); 120 nM in test [6]. Moreover, in test [7] (setting [9]), the IC50 came out at 7.68 nM.
Consider `C#Cc1cccc2cc(O)cc(-c3nc4c5c(nc(OC[C@@]67CCCN6C[C@H](F)C7)nc5c3F)N([C@H](C)c3cccnc3N)CCO4)c12` [Example 7, 4-(10-((R)-1-(2-aminopyridin-3-yl)ethyl)-4-fluoro-2-(((2R,7aS)-2-fluorotetrahydro-1H-pyrrolizin-7a(5H)-yl)methoxy)-9,10-dihydro-8H-7-oxa-1,3,6,10-tetraazacyclohepta[de]naphthalen-5-yl)-5-ethynyinaphthalen-2-ol], for which the IC50 in test [1] came out at 0.12 nM; in test [2], 0.04 nM; in test [3] (Homo sapiens, SW-620, 168 h), 1.96 nM; in test [4] (setting [8]) it was 2.59 nM; in test [5] (Homo sapiens, 168 h) it was 19.3 nM; in test [6], 12 nM. Besides, the IC50 in test [7] (setting [9]) was determined as 1.13 nM.
Regarding `Cc1nc(N)cc(-c2nc3c4c(nc(OC[C@@]56CCCN5C[C@H](F)C6)nc4c2F)N([C@H](C)c2cccnc2N)CCO3)c1C(F)(F)F` [Example 14, 4-(10-((R)-1-(2-aminopyridin-3-yl)ethyl)-4-fluoro-2-(((2R,7aS)-2-fluorotetrahydro-1H-pyrrolizin-7a(5H)-yl)methoxy)-9,10-dihydro-8H-7-oxa-1,3,6,10-tetraazacyclohepta[de]naphthalen-5-yl)-6-methyl-5-(trifluoromethyl)pyridin-2-amine], the IC50 in test [1] was 0.434 nM; in test [2] it was 0.17 nM; in test [3] (Homo sapiens, SW-620, 168 h), 13.9 nM; in test [4] (setting [8]), 116 nM; in test [5] (Homo sapiens, 168 h), 76 nM; in test [6], 130 nM. The IC50 in test [7] (setting [9]) was determined as 2.65 nM.
With `C[C@H](c1cccnc1N)N1CCOc2nc(-c3cc(O)cc4cccc(F)c34)c(F)c3nc(OC[C@@]45CCCN4C[C@H](F)C5)nc1c23` [Example 25, 4-(10-((R)-1-(2-aminopyridin-3-yl)ethyl)-4-fluoro-2-(((2R,7aS)-2-fluorotetrahydro-1H-pyrrolizin-7a(5H)-yl)methoxy)-9,10-dihydro-8H-7-oxa-1,3,6,10-tetraazacyclohepta[de]naphthalen-5-yl)-5-fluoronaphthalen-2-ol], the half-maximal inhibitory concentration (IC50) was 8.81 nM in test [3] (Homo sapiens, SW-620, 168 h); 83.1 nM in test [4] (setting [8]); 250 nM in test [5] (Homo sapiens, 168 h); 110 nM in test [6]; 27.6 nM in test [7] (setting [9]).
As for `C[C@H](c1cccnc1N)N1CCOc2nc(-c3cc(O)cc4ccccc34)c(F)c3nc(OC[C@@]45CCCN4C[C@H](F)C5)nc1c23` [Example 26, 4-(10-((R)-1-(2-aminopyridin-3-yl)ethyl)-4-fluoro-2-(((2R,7aS)-2-fluorotetrahydro-1H-pyrrolizin-7a(5H)-yl)methoxy)-9,10-dihydro-8H-7-oxa-1,3,6,10-tetraazacyclohepta[de]naphthalen-5-yl)naphthalen-2-ol], the IC50 in test [1] came out at 0.26 nM; in test [2], 0.11 nM; in test [3] (Homo sapiens, SW-620, 168 h), 32.3 nM; in test [4] (setting [8]), 77 nM; in test [5] (Homo sapiens, 168 h), 416 nM; in test [6], 350 nM. For the same compound, the IC50 in test [7] (setting [9]) came out at 19.3 nM.
`C[C@H](c1cccnc1N)N1CCOc2nc(-c3cc(N)c(F)c(F)c3C(F)(F)F)c(F)c3nc(OC[C@@]45CCCN4C[C@H](F)C5)nc1c23` [Example 623, 3-((R)-1-(5-(5-amino-3,4-difluoro-2-(trifluoromethyl)phenyl)-4-fluoro-2-(((2R,7aS)-2-fluorotetrahydro-1H-pyrrolizin-7a(5H)-yl)methoxy)-8,9-dihydro-10H-7-oxa-1,3,6,10-tetraazacyclohepta[de]naphthalen-10-yl)ethyl)pyridin-2-amine]: the IC50 stood at 3.3 nM in test [3] (Homo sapiens, SW-620, 168 h); 4300 nM in test [4] (setting [8]); 14.1 nM in test [5] (Homo sapiens, 168 h); 50 nM in test [6]; 2.29 nM in test [7] (setting [9]).
